# Experimental data: article PMC10600247, “Impact of C- and N-terminal protection on the stability, metal chelation and antimicrobial properties of calcitermin” (Scientific Reports, 2023)
# Residues, ends and D or L forms follow the SMILES beside them.
# Assays:
# in vitro = conditions: human, pH 7.4
# Description: Each peptide (C = 1·10^–4 M) and metal complex (metal:ligand ratio 1:1) was incubated in a sample containing 1 ml of human plasma (obtained as a pool of 40 individuals from the University Hospital of Ferrara) and 1 ml of ammonium acetate buffer (pH 7.4) at 37 °C. L-phenylalaninol is added as internal standard. At regular time intervals, 200 μl aliquots were taken and enzymatic reaction was blocked by adding 300 μl of HClO4 0.5 M. The sample was then centrifugated for 6 min at 14,000 × g. The supernatant was then filtered and analysed by HPLC. The analytical column was an Agilent Poroshell 120 SB-C18 (4.6 × 100 mm, 2.7 μm, pore size 120 Å). Flow rate = 0.5 ml/min, mobile phase H2O + 0.1% v/v TFA, linear gradient from 0 to 60% of acetonitrile + 0.1% v/v TFA over 30 min for the elution of peptides, temperature 25 °C, detection wavelength 210 nm. […] Informed consent was obtained from all subjects and/or their legal guardian(s) prior to the donation of blood samples. All experimental protocols were approved by the National Research and Research Transversal Processes boards at University of Ferrara. All methods were carried out in accordance with relevant guidelines and regulations.
# C. albicans (ATCC 10231) = test: In vitro antifungal CFU assay; type: cell-based, Candida albicans; conditions: pH 5.4; for mean CFU number ± S.D.: per 0.1 mL
# Method in brief: (§1)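 Peptides (final 0.128, 0.064, 0.032 mg/mL), alone or with ZnCl2 or CuCl2 at M:L 0.9:1, were incubated with 10^3 CFU/well in PBS pH 5.4 plus 1.5% TSB at 37 °C with slow rocking for 3 and 24 h. Aliquots were plated on TSA and CFU counted after 24 h; triplicate.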
# S. aureus (ATCC 25293) = test: In vitro anti-S. aureus CFU assay; type: cell-based, Staphylococcus aureus; conditions: 3 h, pH 5.4; for mean CFU number ± S.D.: per 0.1 mL
# Method in brief: as §1
# [1] = peptide 0.032 mg/mL + CuCl2 (0.9:1), 3 h
# [2] = peptide 0.032 mg/mL + CuCl2 (0.9:1), 24 h
# [3] = peptide 0.032 mg/mL + ZnCl2 (0.9:1), 3 h
# [4] = peptide 0.032 mg/mL + ZnCl2 (0.9:1), 24 h
# [5] = peptide 0.064 mg/mL + CuCl2 (0.9:1), 3 h
# [6] = peptide 0.064 mg/mL + CuCl2 (0.9:1), 24 h
# [7] = peptide 0.064 mg/mL + ZnCl2 (0.9:1), 3 h
# [8] = peptide 0.064 mg/mL + ZnCl2 (0.9:1), 24 h
# [9] = peptide 0.128 mg/mL + CuCl2 (0.9:1), 3 h
# [10] = peptide 0.128 mg/mL + CuCl2 (0.9:1), 24 h
# [11] = peptide alone 0.032 mg/mL, 24 h
# [12] = peptide alone 0.064 mg/mL, 24 h
# [13] = peptide alone 0.128 mg/mL, 24 h
# [14] = peptide 0.032 mg/mL + CuCl2 (0.9:1)
# [15] = peptide 0.032 mg/mL + ZnCl2 (0.9:1)
# [16] = peptide 0.064 mg/mL + CuCl2 (0.9:1)
# [17] = peptide 0.064 mg/mL + ZnCl2 (0.9:1)
# [18] = peptide 0.128 mg/mL + CuCl2 (0.9:1)
structure (smiles),measurement,setting,value
"CC[C@H](C)[C@H](NC(=O)[C@H](C)NC(=O)[C@@H](N)C(C)C)C(=O)N[C@@H](C)C(=O)N[C@@H](CC(C)C)C(=O)N[C@@H](CCCCN)C(=O)N[C@@H](C)C(=O)N[C@@H](C)C(=O)N[C@@H](Cc1c[nH]cn1)C(=O)N[C@@H](Cc1ccc(O)cc1)C(=O)N[C@@H](Cc1c[nH]cn1)C(=O)N[C@H](C(=O)N[C@@H](Cc1c[nH]cn1)C(=O)N[C@@H](CCCCN)C(=O)N[C@@H](CCC(=O)O)C(=O)O)[C@@H](C)O [WT, VAIALKAAHYHTHKE, reference compound] (H-VAIALKAAHYHTHKE-OH)",half-life,in vitro,18 ± 3 min
same,CFU decrease/increase with respect to untreated controls,C. albicans (ATCC 10231); [1],-12%
same,mean CFU number ± S.D.,C. albicans (ATCC 10231); [1],74 ± 28 CFU
same,CFU decrease/increase with respect to untreated controls,C. albicans (ATCC 10231); [2],-0.4%
same,mean CFU number ± S.D.,C. albicans (ATCC 10231); [2],"1,771 ± 309 CFU"
same,CFU decrease/increase with respect to untreated controls,C. albicans (ATCC 10231); [3],-20%
same,mean CFU number ± S.D.,C. albicans (ATCC 10231); [3],67 ± 35 CFU
same,CFU decrease/increase with respect to untreated controls,C. albicans (ATCC 10231); [4],-31%
same,mean CFU number ± S.D.,C. albicans (ATCC 10231); [4],"1,235.8 ± 235 CFU"
same,CFU decrease/increase with respect to untreated controls,C. albicans (ATCC 10231); [5],+1%
same,mean CFU number ± S.D.,C. albicans (ATCC 10231); [5],85 ± 24 CFU
same,CFU decrease/increase with respect to untreated controls,C. albicans (ATCC 10231); [6],-16%
same,mean CFU number ± S.D.,C. albicans (ATCC 10231); [6],"1,489 ± 111 CFU"
same,CFU decrease/increase with respect to untreated controls,C. albicans (ATCC 10231); [7],-43%
same,mean CFU number ± S.D.,C. albicans (ATCC 10231); [7],48.3 ± 22 CFU
same,CFU decrease/increase with respect to untreated controls,C. albicans (ATCC 10231); [8],-58%
same,mean CFU number ± S.D.,C. albicans (ATCC 10231); [8],754.3 ± 323 CFU
same,CFU decrease/increase with respect to untreated controls,C. albicans (ATCC 10231); [9],-35%
same,mean CFU number ± S.D.,C. albicans (ATCC 10231); [9],55 ± 11 CFU
same,CFU decrease/increase with respect to untreated controls,C. albicans (ATCC 10231); [10],-0.6%
same,mean CFU number ± S.D.,C. albicans (ATCC 10231); [10],"1,790 ± 393 CFU"
same,CFU decrease/increase with respect to untreated controls,"C. albicans (ATCC 10231); peptide 0.128 mg/mL + ZnCl2 (0.9:1), 3 h, listed as WT calcitermin",-49%
same,mean CFU number ± S.D.,"C. albicans (ATCC 10231); peptide 0.128 mg/mL + ZnCl2 (0.9:1), 3 h",42.7 ± 11 CFU
same,CFU decrease/increase with respect to untreated controls,"C. albicans (ATCC 10231); peptide 0.128 mg/mL + ZnCl2 (0.9:1), 24 h, listed as WT calcitermin",-96%
same,mean CFU number ± S.D.,"C. albicans (ATCC 10231); peptide 0.128 mg/mL + ZnCl2 (0.9:1), 24 h",62.8 ± 33 CFU
same,CFU decrease/increase with respect to untreated controls,"C. albicans (ATCC 10231); peptide alone 0.032 mg/mL, 3 h, listed as WT calcitermin",-67%
same,mean CFU number ± S.D.,"C. albicans (ATCC 10231); peptide alone 0.032 mg/mL, 3 h",28 ± 15 CFU
same,CFU decrease/increase with respect to untreated controls,C. albicans (ATCC 10231); [11],-24%
same,mean CFU number ± S.D.,C. albicans (ATCC 10231); [11],"1,348± 698 CFU"
same,CFU decrease/increase with respect to untreated controls,"C. albicans (ATCC 10231); peptide alone 0.064 mg/mL, 3 h, listed as WT calcitermin",-67%
same,mean CFU number ± S.D.,"C. albicans (ATCC 10231); peptide alone 0.064 mg/mL, 3 h",28 ± 15 CFU
same,CFU decrease/increase with respect to untreated controls,C. albicans (ATCC 10231); [12],-33%
same,mean CFU number ± S.D.,C. albicans (ATCC 10231); [12],"1,289 ± 495 CFU"
same,CFU decrease/increase with respect to untreated controls,"C. albicans (ATCC 10231); peptide alone 0.128 mg/mL, 3 h, listed as WT calcitermin",-73%
same,mean CFU number ± S.D.,"C. albicans (ATCC 10231); peptide alone 0.128 mg/mL, 3 h",22.4 ± 15 CFU
same,CFU decrease/increase with respect to untreated controls,C. albicans (ATCC 10231); [13],-41%
same,mean CFU number ± S.D.,C. albicans (ATCC 10231); [13],"1,052 ± 531 CFU"
same,CFU decrease/increase with respect to untreated controls,S. aureus (ATCC 25293); [14],+30%
same,mean CFU number ± S.D.,S. aureus (ATCC 25293); [14],209 ± 44 CFU
same,CFU decrease/increase with respect to untreated controls,S. aureus (ATCC 25293); [15],+5%
same,mean CFU number ± S.D.,S. aureus (ATCC 25293); [15],169 ± 40 CFU
same,CFU decrease/increase with respect to untreated controls,S. aureus (ATCC 25293); [16],+9%
same,mean CFU number ± S.D.,S. aureus (ATCC 25293); [16],175 ± 30 CFU
same,CFU decrease/increase with respect to untreated controls,S. aureus (ATCC 25293); [17],-14%
same,mean CFU number ± S.D.,S. aureus (ATCC 25293); [17],139 ± 20 CFU
same,CFU decrease/increase with respect to untreated controls,S. aureus (ATCC 25293); [18],+42%
same,mean CFU number ± S.D.,S. aureus (ATCC 25293); [18],229 ± 55 CFU
same,CFU decrease/increase with respect to untreated controls,"S. aureus (ATCC 25293); peptide 0.128 mg/mL + ZnCl2 (0.9:1), listed as WT calcitermin",-41%
same,mean CFU number ± S.D.,S. aureus (ATCC 25293); peptide 0.128 mg/mL + ZnCl2 (0.9:1),96 ± 21 CFU
same,CFU decrease/increase with respect to untreated controls,S. aureus (ATCC 25293); peptide alone 0.032 mg/mL,-9.3%
same,mean CFU number ± S.D.,S. aureus (ATCC 25293); peptide alone 0.032 mg/mL,146 ± 7 CFU
same,CFU decrease/increase with respect to untreated controls,S. aureus (ATCC 25293); peptide alone 0.064 mg/mL,-1.2%
same,mean CFU number ± S.D.,S. aureus (ATCC 25293); peptide alone 0.064 mg/mL,159 ± 45 CFU
same,CFU decrease/increase with respect to untreated controls,S. aureus (ATCC 25293); peptide alone 0.128 mg/mL,-1.8%
same,mean CFU number ± S.D.,S. aureus (ATCC 25293); peptide alone 0.128 mg/mL,158 ± 59 CFU
